Laboratory results reported in patent publication US4647587A, “Method for treatment of antidiuresis employing serine derivatives” (Sumitomo Pharmaceuticals Company, Limited, priority 1984, dated 1987).

Legend:
[1] = Diuretic action (general statement); type: in vivo; details: for diuretic action (in words): in vivo
[2] = clinical tests; U.S. Pat. No. 4,330,558; cited from earlier work
[3] = clinical tests; U.S. Pat. No. 4,497,826; cited from earlier work
[4] = Acute toxicity by oral dosage to rat; details: in vivo
[5] = Acute toxicity by oral dosage to dog; details: in vivo
[6] = Acute toxicity by oral dosage to mouse; details: in vivo
[7] = animals; U.S. Pat. No. 3,920,728; cited from earlier work
[8] = tested on: aromatic L-amino acid decarboxylase; details: cited from earlier work; for NA isomer formed: in vivo
[9] = U.S. Pat. No. 4,529,603; cited from earlier work
[10] = Effect of L-threo-DOPS on urinary volume of rats (Experimental Example 1); type: in vivo; details: rats, 10, 30, 100 mg/kg p.o., 3 hours, FIG. 1
Method: (§1) The ordinate represents the urinary volume (ml/kg/3 hr) and the abscissa, the amount of dosage of L-threo-DOPS (mg/kg).
(§2) In FIG. 1 and FIG. 2, the mark * represents p<0.05 (compared with the control group).
(§3) Three rats starved for 17 hours were arranged to form a group. Ten mg/kg, 30 mg/kg, and 100 mg/kg of L-threo-DOPS were suspended in a 0.5% aqueous solution of methyl cellulose, respectively, and orally administered together with 25 ml/kg of isotonic sodium chloride solution. To the control groups were dosed only 0.5% aqueous solution of methyl cellulose and isotonic sodium chloride solution. The urinary volume was measured through 3 hours after the dosage. In addition, among electrolytes in the urine, amounts of sodium ion (Na^+) and potassium ion (K^+) were measured by a flame photometer, and an amount of chlorine ion (Cl^-) by the method of Zall et al. (Anal. Chem. 28, 1665).

[11] = Effect of L-threo-DOPS on electrolytes in urine of rats (Experimental Example 1); type: in vivo; details: for amount of Cl^- in urine / amount of K^+ in urine / amount of Na^+ in urine: 3 hours, average of 5 groups±S.E.
Method: as §3
In the table, values are represented in a unit of mEq/kg/3 hr and as the average of 5 groups±S.E.

[12] = Effect of L-threo-DOPS on urinary volume of mice (Experimental Example 2); type: in vivo; details: FIG. 2
Method: as §1, §2
Ten mice starved for 17 hours were arranged to form a group. Ten mg/kg, 30 mg/kg, and 100 mg/kg of L-threo-DOPS were suspended in a 0.5% aqueous solution of methyl cellulose, respectively, and orally administered together with […] of isotonic sodium chloride solution. To the control groups were dosed only 0.5% aqueous solution of methyl cellulose and isotonic sodium chloride solution.

[13] = Effect of periphery decarboxylase inhibitor (DCI) on diuretic action of L-threo-DOPS (Experimental Example 3); type: in vivo, rats; details: for effect on diuretic action of L-threo-DOPS when used together (in words): p.o. at the same time with L-threo-DOPS
Method: Investigation was made on the effect of L-threo-DOPS on diuretic action when DCI, benserazide or carbidopa was dosed by oral administration at the same time, as in the same manner as Experimental Example 1.

[14] = Amount of NA in the kidney and heart of rats after the dosage of L-threo-DOPS (Experimental Example 4); type: in vivo
Method: To the rats were dosed 30 mg/kg of L-threo-DOPS by oral adminstration, and the amount of NA in the kidney and heart after 1 hour was measured.
The method for the measurement was nearly in accordance with the method of Suzuki, et al. (Europ. J. Clin. Pharmacol., 23, 463, 1982).

harmaline induced tremor = details: Japanese Patent Publication 125630/1977; cited from earlier work
[15] = rats; Araki et al. 1981; cited from earlier work
[16] = rats; Araki et al. 1978; cited from earlier work
renal blood vessel = details: in vivo; cited from earlier work
[17] = rats, 30 mg/kg p.o., after 1 hour, average of 5 rats±S.E.

For N[C@H](C(=O)O)[C@H](O)c1ccc(O)c(O)c1 (relative stereo) [DL-threo-DOPS], the “diuretic action (in words)” value [1] is given as “significant diuretic action”, the “effect on orthostatic hypotension” value [2] is given as “beneficial effects” and the “effect on freezing phenomena of Parkinson's disease” value [3] is given as “beneficial effects”. For the same molecule, the LD50 [4] was ≥ 10000 mg/kg, the LD50 [5] was ≥ 10000 mg/kg and the LD50 [6] was ≥ 10000 mg/kg.
For N[C@H](C(=O)O)[C@@H](O)c1ccc(O)c(O)c1 (relative stereo) [erythro-DOPS, reference compound], the “antihypertensive or antidepressive effect” value [7] is given as “antihypertensive or antidepressive effect”.
For N[C@H](C(=O)O)[C@H](O)c1ccc(O)c(O)c1 (relative stereo) [threo-DOPS, threo-3-(3,4-dihydroxyphenyl)-serine], the “antihypertensive or antidepressive effect” value [7] is given as “antihypertensive or antidepressive effect”.
For N[C@H](C(=O)O)C(O)c1ccc(O)c(O)c1 (stereo partly drawn) [L-DOPS], the “conversion to noradrenaline in vivo” value ([8]; by aromatic L-amino acid decarboxylase) is listed as “converted to noradrenaline”.
For N[C@H](C(=O)O)[C@@H](O)c1ccc(O)c(O)c1 [L-erythro-DOPS], the “effect on psychmotor excitement” value [9] is listed as “suppressive effect” and the NA isomer formed [8] is listed as “unnatural type d-NA”.
For N[C@H](C(=O)O)[C@H](O)c1ccc(O)c(O)c1 [L-threo-DOPS], the “urinary volume (in words)” value [10] was “Increase in the urinary volume was recognized in accordance with the amount of dosage”, the “amount of Cl^- in urine” value ([11]; 10 mg/kg p.o.) was 1.89 ± 0.14 mEq/kg/3 hr and the “amount of K^+ in urine” value ([11]; 10 mg/kg p.o.) was 0.32 ± 0.03 mEq/kg/3 hr. For the same molecule, the “amount of Na^+ in urine” value ([11]; 10 mg/kg p.o.) was 1.58 ± 0.12 mEq/kg/3 hr, the “amount of Cl^- in urine” value ([11]; 30 mg/kg p.o.) was 2.97 ± 0.25 mEq/kg/3 hr and the “amount of K^+ in urine” value ([11]; 30 mg/kg p.o.) was 0.37 ± 0.05 mEq/kg/3 hr. For the same molecule, the “amount of Na^+ in urine” value ([11]; 30 mg/kg p.o.) was 2.45 ± 0.32 mEq/kg/3 hr, the “amount of Cl^- in urine” value ([11]; 100 mg/kg p.o.) was 3.24 ± 0.07 mEq/kg/3 hr and the “amount of K^+ in urine” value ([11]; 100 mg/kg p.o.) was 0.45 ± 0.03 mEq/kg/3 hr. The “amount of Na^+ in urine” value ([11]; 100 mg/kg p.o.) was 3.15 ± 0.07 mEq/kg/3 hr, the “amount of Na^+ in urine (in words)” value ([11]; groups dosed 10 mg/kg or more p.o.) was “significantly increases” and the “amount of Cl^- in urine (in words)” value ([11]; only in groups dosed 30 mg/kg or more p.o.) was “significantly increased”. The “amount of K^+ in urine (in words)” value ([11]; only in the group dosed 100 mg/kg p.o.) was “significant increase”, the “amount of K^+ in urine (in words)” value ([11]; p.o., doses in general) was “not so much influenced” and the “urinary volume (in words)” value ([12]; mice, 10, 30, 100 mg/kg p.o.) was “increases the urinary volume in accordance with the amount of dosage”. For the same molecule, the “urinary volume, significance (in words)” value ([12]; mice, group dosed 100 mg/kg p.o.) was “significant”, the Urinary volume ([13]; L-threo-DOPS 30 mg/kg p.o. alone, average of 5 groups±S.E.) was 51.9 ± 3.0 ml/kg/3 hr and the “NA in the heart (in words)” value ([14]; 30 mg/kg p.o.) was “no influence”. For the same molecule, the “amount of NA in the kidney (in words)” value ([14]; 30 mg/kg p.o.) was “markedly increases”, the “NA concentration in the kidney compared with those in other organs (in words)” value ([14]; rat, in vivo) was “significantly increased” and the “amount of NA in the heart” value [14, 17] was 1.00 ± 0.06 ng/g wet weight. For the same molecule, the “amount of NA in the kidney” value [14, 17] was 1.80 ± 0.35 ng/g wet weight, the “course of diuretic action (in words)” value ([1]; easy manner such as oral administration) was “uniformly and prolongably” and the “diuretic action (in words)” value [1] was “significant diuretic action”. For the same molecule, the “effect on harmaline induced tremor” value (harmaline induced tremor) was “inhibitory effect”, the pressor effect [15] was “pressor effect” and the positive chronotropic effect [16] was “positive chronotropic effect”. The “effect on orthostatic hypotension” value [2] was “beneficial effects”, the “effect on freezing phenomena of Parkinson's disease” value [3] was “beneficial effects” and the NA isomer formed [8] was “natural type l-NA”. For the same molecule, the LD50 [4] was ≥ 10000 mg/kg, the LD50 [5] was ≥ 10000 mg/kg and the LD50 [6] was ≥ 10000 mg/kg.
With NC(CO)C(=O)NNCc1ccc(O)c(O)c1O (stereo not drawn) [benserazide] the “effect on diuretic action of L-threo-DOPS when used together (in words)” value [13] was “significantly decreased”.
In the case of C[C@@](Cc1ccc(O)c(O)c1)(NN)C(=O)O [carbidopa], the “effect on diuretic action of L-threo-DOPS when used together (in words)” value [13] is reported as “significantly decreased”.
In the case of NC[C@H](O)c1ccc(O)c(O)c1 [l-NA], the “action on the renal blood vessel” value (renal blood vessel) is listed as “contractive action” and the “effect on renal blood flow” value (renal blood vessel) is listed as “decrease in the renal blood flow”.
